Where no end group is shown, it is not given here. The star is where a group is joined. 5‑TAMRA = CN(C)c1ccc2c(-c3ccc(C(=O)*)cc3C(=O)[O-])c3ccc(N(C)C)cc3[o+]c2c1; DEAC = CCN(CC)c1ccc2cc(C(=O)*)c(=O)oc2c1; Cy5.5 = Cy5.5 fluorescent dye; Ahx = NCCCCCC(=O)O
Assays:
[1] = tested on: colonic adenomas; assay: In vivo imaging with non-scanning endoscope, FITC-labeled peptides; set-up: species or system CPC; Apc mice; details: Non-scanning Endoscopy Results; FITC label; mean ± SD
Excerpt: Specific binding of the candidate peptides to primary dysplastic colonic epithelial cells were validated on flow cytometry ex vivo and with small animal endoscopy in vivo using FITC-labeled peptides using a non-scanning white light endoscope.

[2] = tested on: colonic adenomas; assay: In vivo imaging with multi-spectral scanning fiber endoscope; set-up: species or system CPC; Apc mice; details: 100 μM topical, 5 min; for Average T/B: Multi-Spectral Scanning Fiber Endoscopy Results, mean ± SD
Excerpt: A scanning fiber endoscope system was adapted for fluorescence detection in three channels (RGB) using excitation at 440 (NDHB510APA, Nichia, Tokyo, Japan), 532 (FTEC532-V10TA0, Blue Sky Research, Milpitas, Calif.) and 635 (FMXL635-017TA0B, Blue Sky Research) nm using an RGB coupler (OZ Optics, Ottawa, Canada). The three laser sources are delivered simultaneously into the scanning fiber, and focused to the same point on the illumination plane using a custom lens assembly, as shown in the schematic in FIG. 2A. The laser power coming out of the distal tip of the endoscope is <2 mW for each channel, a level consistent with a non-significant risk (NSR) determination by the U.S. Food and Drug Administration (FDA, 21 CFR 812) for future human clinical studies. The amplitude of the spiral scanner was reduced to achieve a divergence angle of 70 deg (max 100 deg) to minimize noise in the periphery of the image. Fluorescence is collected by a ring of 12 step-index plastic optical fibers (POF) with numerical aperture (N.A.) of 0.63 and outer diameter of 250 μm (Toray Industries Inc, Tokyo, Japan).
The CPC;Apc mice were first imaged with white light using a non-scanning endoscope (Karl Storz Veterinary Endoscopy, Goleta, Calif.) to assess for the presence of colonic adenomas that have a size between ˜0.5 to 4 mm in diameter. Any adenomas were rinsed of debris including stool and mucous, by delivering tap water through a 3 Fr instrument channel. Then, the fluorescent-labeled peptides were delivered topically at a concentration of 100 μM in 1×PBS in a volume of 1 mL to the distal 4 cm of the colon and rectum. The peptides were incubated for 5 minutes and then the unbound peptides were rinsed away with tap water 3 times. The colon was inspected for any residual peptide, and when clean, the colon was insufflated with air and imaged with the multi-spectral scanning fiber endoscope.
Videos collected during endoscopy were exported as avi video files and converted into sequential png images using Apple QuickTime. White light and fluorescence images for each adenoma were analyzed in NIH Image J. The white light image was utilized to draw a region of interest (ROI) around the adenoma or adjacent normal appearing colonic mucosa which was then superimposed onto the fluorescence image. The mean fluorescence intensities were calculated for each ROI, and a target/background (T/B) ratio was calculated for each colonic adenoma and compared to the surrounding normal appearing mucosa.

[3] = tested on: HT29 cells; assay: Competitive inhibition assay (bound phage counts); format: cell-based, human
Procedure: Bound phage counts were performed to observe the competitive inhibition effect of the synthetic candidate heptapeptide with its representative phage counterpart in triplicate. HT29 cells (5×10^6) were detached with enzyme free cell dissociation buffer and blocked with 1% BSA containing PBS for 30 min at 4° C. The cells were washed and incubated with phage (2×10^11) for 15 min. Then, the cells were washed with PBS and immediately incubated with different concentrations of unlabeled peptide ranging from 10 to 200 μM for an additional 15 min. Cells were washed 3× and the bound phages were recovered as described above in bound phage counts. The bound phages were then tittered and counted, and the relative inhibition rate was calculated. The inhibition activity of no-insert WT phage by synthetic candidate peptide and phage with unrelated synthetic control peptide were used as negative controls.

[4] = tested on: human colonic mucosa sections (normal, dysplasia, adenocarcinoma); assay: Cy5.5-labeled peptide staining of human colonic mucosa sections; details: for sections of adenocarcinoma stained / sections of dysplasia stained: stained/total sections
Procedure: All specimens were obtained with approval from the University of Michigan Institutional Review Board (IRB). Freshly resected specimens of human colonic mucosa were frozen in OCT and sectioned with 10 μm thickness using Microm-HM-550 Microtome (EquipNet, Inc. Canton, Mass.). The sections were then air dried, washed with PBS 1×, and incubated with the Cy5.5-labeled peptides at a concentration of 10 μM for 15 min at RT. The sections were washed 3× for 1 min in PBS and fixed with 4% paraformaldehyde for 10 min. After fixation, the sections were washed again (1×) and mounted with ProLong Gold reagent with DAPI (Invitrogen, Carlsbad, Calif.). The sections were imaged under a confocal microscope (Leica TCS SP5 Microsystems, Bannockburn, Ill.). Adjacent sections were sent for routine histology. The average intensity from the entire field-of-view of each image was calculated using Matlab (Mathworks, Natick, Mass.).
For the ex-vivo peptide immunohistochemistry, the nonparametric Kruskal-Wallis test was used to determine if observed differences are statistically significant among all three pathological classifications. The nonparametric Mann-Whitney test was used for comparisons between two independent samples, and differences with p<0.05 were considered significant.

[5] = tested on: colonic dysplasia (adenomas); assay: In vivo NIR fluorescence endoscopic imaging; set-up: species or system CPC;Apc mice; details: for fluorescence signal on in vivo NIR image: 100 μM topical, 5 min; for average T/B ratio: adenoma/adjacent normal ratio as defined
Excerpt: Anesthesia was induced and maintained with inhaled isofluorane mixed with oxygen via a nose cone at a dose of 4% and 2% at a flow rate 0.5 liter/min, respectively. Prior to peptide administration, the colon of each mouse was cleaned with a tap water lavage to remove debris. The conventional white light endoscope was used first with a color camera to identify the presence of adenomas. The colon was then rinsed with water until all of the visible mucous was removed. The Cy5.5-labeled peptides were then delivered at a concentration of 100 μM in 1×PBS containing 2.5% DMSO […] through the instrument channel. The peptides were allowed to incubate for 5 minutes, and then the colon was cleansed 3 times with a tap water to remove any unbound peptide. Prior to imaging, the colon was inspected for residual peptide solution, and when clean, the colon was insufflated with air for imaging. Fluorescence images were collected using Axiovision 4.8.1 software.
Images collected during endoscopy were recorded as .zvi files and converted into .tiff images using Axiovision Lite software. Consecutive white light and fluorescence images for each adenoma were analyzed. Regions of interest (ROI) around the adenoma and adjacent normal-appearing mucosa were defined on the color and fluorescence images using Labview®. The white light image was utilized to draw an ROI around the adenoma or adjacent normal appearing colonic mucosa which was then superimposed onto the fluorescent image. Mean gray scale values were calculated for each ROI, and an adenoma/normal colon, or a T/B ratio, value was then calculated for each adenoma. The mean fluorescence intensities were calculated from each ROI to determine the ratio of the average intensities for the adenomas to that from adjacent normal-appearing mucosa, or T/B ratio.
Two-tailed independent samples t-tests (significance level at α=0.05) were used to determine statistical significance between the T/B ratio for the QPI-Cy5.5 and YTT-Cy5.5 peptides binding to colonic adenomas in the CPC;Apc mice. All statistical computations were processed either using statistical software (SPSS15.0.; SPSS, Chicago, Ill.) or Minitab (Minitab Inc. State College, Pa.).

## AKPGYLS-FITC: AKPGYLS labeled with 5′-FITC at the C-terminus via GGGSK linker (not fully specified; GGGSK linker, FITC)
[1]
  Average T/B: 1.53 ± 0.48

## ALTPTPP-FITC: ALTPTPP labeled with 5′-FITC at the C-terminus via GGGSK linker (not fully specified; GGGSK linker, FITC)
[1]
  Average T/B: 1.19 ± 0.18

## ANYPREP-FITC: ANYPREP labeled with 5′-FITC at the C-terminus via GGGSK linker (not fully specified; GGGSK linker, FITC)
[1]
  Average T/B: 0.94 ± 0.11

## ATTVPAS-FITC: ATTVPAS labeled with 5′-FITC at the C-terminus via GGGSK linker (not fully specified; GGGSK linker, FITC)
[1]
  Average T/B: 1.06 ± 0.33

## GGGAGGG-FITC: FITC-labeled GGGAGGG control peptide; probably the same as FITC-Control peptide 2 (also: FITC label, site not given here) [reference compound]
[1]
  Average T/B: 1.05 ± 0.05

## GGGAGGGAGGGK (5-TAMRA)-NH2 (GGGAGGGAGGGK(5‑TAMRA)-NH2; N-terminus assumed; SMILES C[C@H](NC(=O)CNC(=O)CNC(=O)CN)C(=O)NCC(=O)NCC(=O)NCC(=O)N[C@@H](C)C(=O)NCC(=O)NCC(=O)NCC(=O)N[C@@H](CCCCNC(=O)c1ccc(-c2c3ccc(N(C)C)cc3[o+]c3cc(N(C)C)ccc23)c(C(=O)[O-])c1)C(N)=O) [GGGAGGG-TAMRA, reference compound]
[2]
  binding to colonic dysplasia/adenomas on fluorescence images: minimal signal
  Average T/B: 1.32±0.10

## GGGAGGGAGGGK (DEAC)-NH2 (GGGAGGGAGGGK(DEAC)-NH2; N-terminus assumed; SMILES CCN(CC)c1ccc2cc(C(=O)NCCCC[C@H](NC(=O)CNC(=O)CNC(=O)CNC(=O)[C@H](C)NC(=O)CNC(=O)CNC(=O)CNC(=O)[C@H](C)NC(=O)CNC(=O)CNC(=O)CN)C(N)=O)c(=O)oc2c1) [GGGAGGG-DEAC, reference compound]
[2]
  binding to colonic dysplasia/adenomas on fluorescence images: minimal signal
  Average T/B: 1.19±0.09

## KCCFPAQ [Peptide 2, heptapeptide from M13 phage display]
[3]; HT29, 200 μM unlabeled KCCFPAQ peptide
  bound KCCFPAQ phage count: 3.8×10^4±6.6×10^3
[3]; addition of KCCFPAQ peptide
  inhibition of WT phage binding: did not inhibit
[3]; peptide concentration above ˜75 μM
  rate of inhibition at saturation: > 98%
[3]; up to 200 μM unlabeled peptide
  inhibition of KCCFPAQ phage binding to HT29 cells: in a dose-dependent manner

## LTTHYKL-CF633: LTTHYKL labeled with CF633 (also: CF633 label, place not given here)
[2]
  binding to colonic dysplasia/adenomas on fluorescence images: more subtle

## LTTHYKL-FITC: LTTHYKL labeled with 5′-FITC at the C-terminus via GGGSK linker (not fully specified; GGGSK linker, FITC)
[1]
  Average T/B: 1.50 ± 0.73

## NLVNLLP-FITC: NLVNLLP labeled with 5′-FITC at the C-terminus via GGGSK linker (not fully specified; GGGSK linker, FITC)
[1]
  Average T/B: 0.99 ± 0.06

## QPI-Cy5.5: QPIHPNNM conjugated with Cy5.5 on the N-terminus via an amino-hexanoic acid linker ({Cy5.5-Ahx}-QPIHPNNM; not fully specified)
[4]; 10 μM, 15 min, RT
  staining of dysplasia and adenocarcinoma: consistently stained
  staining of normal colonic mucosa: did not stain any of the 7 sections
[4]; 10 μM, 15 min, RT, listed as QPI-CY5.5
  staining of normal colonic mucosa: no binding
[4]; adenocarcinoma
  T/B ratio QPI-Cy5.5 in comparison to YTT-Cy5.5: 2.9
  intensity ratio relative to normal colonic mucosa: 6.5
  mean NIR fluorescence intensity: 9.8±2.4 AU
[4]; dysplasia
  T/B ratio QPI-Cy5.5 in comparison to YTT-Cy5.5: 26.7
  intensity ratio relative to normal colonic mucosa: 7.1
  mean NIR fluorescence intensity: 10.7±3.3 AU
[4]; normal
  mean NIR fluorescence intensity: 1.5±1.0 AU
[4]; normal mucosa
  T/B ratio QPI-Cy5.5 in comparison to YTT-Cy5.5: 1.8
[4]
  sections of adenocarcinoma stained: 8/10
  sections of dysplasia stained: 6/8
[5]
  fluorescence signal on in vivo NIR image: significant contrast enhancement
  average T/B ratio: 3.42±1.30

## YTTNKH [YTT-Cy5.5, reference compound]
[4]; 10 μM, 15 min, RT
  staining of any specimen (normal, dysplasia, adenocarcinoma): did not stain any of the specimens
  staining of normal colonic mucosa: did not stain
[4]
  sections of adenocarcinoma stained: 5/10
  sections of dysplasia stained: did not stain
[5]
  fluorescence signal on in vivo NIR image: negligible signal
  average T/B ratio: 1.88±0.38

Reference: patent US8901276B2, “Peptide reagents and methods for detection of colon dysplasia” (The Regents of the University of Michigan, priority 2010, dated 2014)
